Results reported in the supplement of paper PMC6045584.
± gives the standard deviation of the averaged measurements.

Columns and labels:
[1] = compound: Cn1cc(C2=Nc3cc(NC(=O)C(N)C4CCCCC4)cc4c3C2=CNNC4=O)cn1; assay: surviving fraction relative to DMSO-only wells; higher = less growth inhibition; details: exposure time: 5 days
Outline: (§1)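 Surviving fraction is CellTiter-Glo luminescence divided by the median of wells given DMSO only. For this, log-phase tumour cell lines went into 384-well plates at 250–500 cells per well and, 24 hours later, into five days of continuous inhibitor exposure at 0.5, 1, 5, 10, 50, 100, 500 and 1000 nM. Lines were screened three times and retained only if replicate Pearson r >0.7 and median Z' >0.3.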

[2] = compound: C=CC(=O)Nc1cc2c(Nc3ccc(F)c(Cl)c3)ncnc2cc1OCCCN1CCOCC1 [CANERTINIB]; assay: as above; details: exposure time: 5 days
Outline: as §1

| Test System | surviving fraction ([1]; 0.5 nM) | surviving fraction ([1]; 1 nM) | surviving fraction ([1]; 5 nM) | surviving fraction ([1]; 10 nM) | surviving fraction ([1]; 50 nM) | surviving fraction ([1]; 100 nM) | surviving fraction ([1]; 500 nM) | surviving fraction ([1]; 1000 nM) | surviving fraction ([2]; 0.5 nM) | surviving fraction ([2]; 1 nM) | surviving fraction ([2]; 5 nM) | surviving fraction ([2]; 10 nM) | surviving fraction ([2]; 50 nM) | surviving fraction ([2]; 100 nM) | surviving fraction ([2]; 500 nM) | surviving fraction ([2]; 1000 nM) |
| --- | --- | --- | --- | --- | --- | --- | --- | --- | --- | --- | --- | --- | --- | --- | --- | --- |
| OSHN BONE | 1.05 ± 0.044 | 1.077 ± 0.001 | 1.05 ± 0.018 | 1.062 ± 0.0075 | 0.959 ± 0.021 | 0.924 ± 0.017 | 0.0477 ± 0.0023 | 0.0277 ± 0.00058 | 0.898 ± 0.036 | 0.904 ± 0.028 | 0.932 ± 0.035 | 0.91 ± 0.019 | 1.03 ± 0.043 | 1.03 ± 0.016 | 1.02 ± 0.0035 | 1.03 ± 0.028 |
| RDES SOFT TISSUE | 1.12 ± 0.071 | 0.961 ± 0.14 | 0.953 ± 0.08 | 1.1 ± 0.21 | 0.776 ± 0.2 | 1.08 ± 0.39 | 0.0493 ± 0.0045 | 0.0827 ± 0.011 | 0.774 ± 0.16 | 0.858 ± 0.12 | 0.707 ± 0.049 | 0.713 ± 0.19 | 0.903 ± 0.063 | 1.06 ± 0.14 | 1.09 ± 0.032 | 0.921 ± 0.21 |
| S68 BREAST | 0.693 ± 0.42 | 1.17 ± 0.18 | 1.02 ± 0.12 | 0.901 ± 0.12 | 0.42 ± 0.048 | 0.345 ± 0.041 | 0.135 ± 0.012 | 0.0897 ± 0.0071 | 0.642 ± 0.11 | 0.813 ± 0.21 | 0.748 ± 0.3 | 0.793 ± 0.04 | 1.04 ± 0.22 | 1.01 ± 0.12 | 0.636 ± 0.091 | 0.425 ± 0.12 |
| SAOS2 BONE | 1.1493 ± 0.00058 | 1.08 ± 0.049 | 1.073 ± 0.0011 | 1.17 ± 0.077 | 0.882 ± 0.065 | 0.728 ± 0.03 | 0.113 ± 0.017 | 0.0473 ± 0.0046 | 0.853 ± 0.028 | 0.85 ± 0.042 | 0.877 ± 0.06 | 0.818 ± 0.015 | 1.02 ± 0.038 | 1.04 ± 0.12 | 0.815 ± 0.026 | 0.703 ± 0.063 |
| SCC47 HEADNECK | 1.02 ± 0.015 | 1.03 ± 0.13 | 1.1 ± 0.065 | 1.08 ± 0.11 | 1 ± 0.027 | 1.01 ± 0.054 | 0.981 ± 0.011 | 0.81 ± 0.094 | 0.828 ± 0.025 | 0.921 ± 0.088 | 0.881 ± 0.048 | 0.889 ± 0.028 | 0.9577 ± 0.0083 | 0.805 ± 0.032 | 0.681 ± 0.015 | 0.432 ± 0.044 |
| SCC90 HEADNECK | 0.92 ± 0.099 | 0.952 ± 0.11 | 0.943 ± 0.12 | 0.991 ± 0.014 | 0.891 ± 0.057 | 0.702 ± 0.029 | 0.15 ± 0.0075 | 0.068 ± 0.0076 | 0.781 ± 0.13 | 0.793 ± 0.056 | 0.787 ± 0.018 | 0.737 ± 0.064 | 0.656 ± 0.075 | 0.564 ± 0.065 | 0.428 ± 0.021 | 0.335 ± 0.051 |
| SG27 HEADNECK | 1.11 ± 0.17 | 0.979 ± 0.096 | 0.898 ± 0.059 | 1.01 ± 0.022 | 0.904 ± 0.12 | 0.917 ± 0.18 | 0.895 ± 0.042 | 0.839 ± 0.035 | 1.03 ± 0.15 | 1.06 ± 0.054 | 1.03 ± 0.067 | 0.883 ± 0.1 | 1.01 ± 0.1 | 0.999 ± 0.028 | 0.96 ± 0.13 | 0.894 ± 0.08 |
| SG28 HEADNECK | 0.971 ± 0.052 | 1.04 ± 0.14 | 0.991 ± 0.044 | 1.01 ± 0.047 | 0.83 ± 0.029 | 0.661 ± 0.022 | 0.427 ± 0.012 | 0.317 ± 0.026 | 0.824 ± 0.055 | 0.803 ± 0.046 | 0.627 ± 0.081 | 0.621 ± 0.089 | 0.642 ± 0.0092 | 0.498 ± 0.059 | 0.364 ± 0.073 | 0.366 ± 0.021 |
| SG31 HEADNECK | 1.01 ± 0.076 | 1.06 ± 0.18 | 0.908 ± 0.1 | 0.901 ± 0.11 | 0.881 ± 0.11 | 0.825 ± 0.02 | 0.79 ± 0.021 | 0.669 ± 0.052 | 0.935 ± 0.084 | 0.907 ± 0.035 | 0.811 ± 0.043 | 0.688 ± 0.15 | 0.63 ± 0.12 | 0.581 ± 0.086 | 0.588 ± 0.045 | 0.498 ± 0.1 |
| SG32 HEADNECK | 1.12 ± 0.29 | 1.13 ± 0.1 | 1.14 ± 0.091 | 1.12 ± 0.14 | 0.881 ± 0.065 | 0.774 ± 0.19 | 0.273 ± 0.099 | 0.222 ± 0.087 | 0.647 ± 0.084 | 0.826 ± 0.11 | 0.778 ± 0.12 | 0.839 ± 0.094 | 0.786 ± 0.15 | 0.703 ± 0.14 | 0.577 ± 0.09 | 0.501 ± 0.031 |
| SG43 HEADNECK | 1.08 ± 0.17 | 0.969 ± 0.1 | 0.929 ± 0.19 | 1.01 ± 0.37 | 1.11 ± 0.21 | 1.06 ± 0.15 | 0.888 ± 0.098 | 0.968 ± 0.097 | 1.05 ± 0.074 | 1.06 ± 0.1 | 0.772 ± 0.21 | 0.816 ± 0.14 | 0.387 ± 0.23 | 0.223 ± 0.027 | 0.265 ± 0.05 | 0.183 ± 0.0075 |
| SIHA CERVIX | 1.053 ± 0.0049 | 0.972 ± 0.02 | 1.06 ± 0.086 | 1.06 ± 0.043 | 1.02 ± 0.05 | 1.05 ± 0.07 | 0.917 ± 0.059 | 0.524 ± 0.024 | 0.897 ± 0.035 | 0.809 ± 0.04 | 0.978 ± 0.023 | 0.867 ± 0.049 | 0.951 ± 0.14 | 0.977 ± 0.055 | 0.871 ± 0.027 | 0.727 ± 0.027 |
| SUM44 BREAST | 0.896 ± 0.016 | 0.936 ± 0.059 | 0.905 ± 0.072 | 0.594 ± 0.03 | 0.349 ± 0.028 | 0.239 ± 0.0068 | 0.232 ± 0.017 | 0.301 ± 0.015 | 0.778 ± 0.15 | 0.719 ± 0.22 | 0.797 ± 0.16 | 0.796 ± 0.18 | 1.05 ± 0.063 | 0.948 ± 0.16 | 0.84 ± 0.14 | 0.778 ± 0.12 |
| SUM149 BREAST | 0.875 ± 0.087 | 0.854 ± 0.13 | 0.874 ± 0.14 | 0.911 ± 0.1 | 0.481 ± 0.067 | 0.238 ± 0.047 | 0.0587 ± 0.0096 | 0.063 ± 0.0062 | 0.898 ± 0.078 | 0.832 ± 0.052 | 0.627 ± 0.029 | 0.531 ± 0.04 | 0.451 ± 0.053 | 0.424 ± 0.072 | 0.324 ± 0.037 | 0.279 ± 0.037 |
| SUM149.B1*.S BREAST | 1.045 ± 0.0088 | 1.1 ± 0.025 | 1.01 ± 0.057 | 1.04 ± 0.033 | 1.03 ± 0.062 | 0.954 ± 0.03 | 0.377 ± 0.0042 | 0.225 ± 0.024 | 0.921 ± 0.016 | 0.941 ± 0.015 | 0.933 ± 0.026 | 0.917 ± 0.048 | 0.956 ± 0.028 | 0.972 ± 0.018 | 0.868 ± 0.055 | 0.805 ± 0.029 |
| SUM159 BREAST | 1.13 ± 0.14 | 1.16 ± 0.17 | 1.16 ± 0.19 | 1.12 ± 0.12 | 1.01 ± 0.066 | 1.1 ± 0.12 | 1.04 ± 0.012 | 0.862 ± 0.011 | 0.973 ± 0.011 | 0.961 ± 0.028 | 0.948 ± 0.028 | 0.9347 ± 0.0076 | 0.9437 ± 0.0046 | 0.942 ± 0.022 | 0.916 ± 0.012 | 0.9197 ± 0.009 |
| SYO1 SYNOVIAL | 0.977 ± 0.022 | 0.96 ± 0.026 | 0.924 ± 0.04 | 0.897 ± 0.036 | 0.441 ± 0.02 | 0.18 ± 0.051 | 0.0432 ± 0.008 | 0.042 ± 0.0055 | 0.836 ± 0.061 | 0.791 ± 0.045 | 0.793 ± 0.027 | 0.784 ± 0.029 | 0.86 ± 0.029 | 0.871 ± 0.038 | 0.666 ± 0.019 | 0.498 ± 0.022 |
| T47D BREAST | 0.9916 ± 0.0057 | 1.02 ± 0.032 | 1.03 ± 0.041 | 1.07 ± 0.022 | 1.12 ± 0.044 | 1.14 ± 0.059 | 0.896 ± 0.023 | 0.661 ± 0.021 | 0.926 ± 0.051 | 0.898 ± 0.024 | 0.922 ± 0.058 | 0.899 ± 0.037 | 0.973 ± 0.021 | 0.96 ± 0.012 | 0.893 ± 0.015 | 0.874 ± 0.031 |
| U2OS BONE | 1.06 ± 0.016 | 1.08 ± 0.029 | 1.1 ± 0.045 | 1.08 ± 0.04 | 1.04 ± 0.029 | 0.999 ± 0.029 | 0.201 ± 0.017 | 0.0873 ± 0.0068 | 0.951 ± 0.022 | 0.95 ± 0.041 | 0.942 ± 0.025 | 0.962 ± 0.047 | 0.991 ± 0.0096 | 0.991 ± 0.029 | 0.877 ± 0.017 | 0.889 ± 0.059 |
| VP229 BREAST | 1.04 ± 0.11 | 1.04 ± 0.035 | 1.02 ± 0.059 | 1.11 ± 0.17 | 1.06 ± 0.15 | 1.01 ± 0.064 | 1.13 ± 0.13 | 1.06 ± 0.15 | 0.724 ± 0.051 | 0.682 ± 0.085 | 0.638 ± 0.11 | 0.514 ± 0.061 | 0.467 ± 0.021 | 0.42 ± 0.033 | 0.201 ± 0.019 | 0.154 ± 0.044 |
| YAMATO SYNOVIAL | 1.32 ± 0.11 | 1.28 ± 0.16 | 1.32 ± 0.093 | 1.33 ± 0.12 | 0.8 ± 0.032 | 0.682 ± 0.077 | 0.285 ± 0.011 | 0.258 ± 0.017 | 0.878 ± 0.19 | 0.857 ± 0.088 | 0.909 ± 0.065 | 0.938 ± 0.091 | 1.27 ± 0.1 | 1.28 ± 0.067 | 1.06 ± 0.083 | 1.1 ± 0.074 |
| ZR751 BREAST | 1.04 ± 0.079 | 1.03 ± 0.19 | 0.941 ± 0.13 | 0.908 ± 0.11 | 0.787 ± 0.032 | 0.69 ± 0.053 | 0.625 ± 0.044 | 0.555 ± 0.018 | 0.993 ± 0.042 | 0.957 ± 0.044 | 0.948 ± 0.052 | 0.957 ± 0.093 | 0.802 ± 0.026 | 0.77 ± 0.062 | 0.648 ± 0.052 | 0.618 ± 0.029 |
